Experimental data published in patent publication US20240116985A1, “STAPLED PEPTIDES AND METHODS THEREOF” (priority 2020, published 2024).
pEC50, pIC50: −log10 of the molar value. Where two headings read alike, the source gives them in different places.

Tests used:
[1] = biological target: T1, full-length beta-Catenin (Uniprot ID P35222) (Homo sapiens, UniProt P35222); experiment: Fluorescence polarization IC50 (beta-catenin / 5FAM-TCF4 10-53 competition); assay type: binding
T1 construct: 10 nM full-length beta-Catenin (Uniprot ID P35222)
T1 sequence (P35222 1-781): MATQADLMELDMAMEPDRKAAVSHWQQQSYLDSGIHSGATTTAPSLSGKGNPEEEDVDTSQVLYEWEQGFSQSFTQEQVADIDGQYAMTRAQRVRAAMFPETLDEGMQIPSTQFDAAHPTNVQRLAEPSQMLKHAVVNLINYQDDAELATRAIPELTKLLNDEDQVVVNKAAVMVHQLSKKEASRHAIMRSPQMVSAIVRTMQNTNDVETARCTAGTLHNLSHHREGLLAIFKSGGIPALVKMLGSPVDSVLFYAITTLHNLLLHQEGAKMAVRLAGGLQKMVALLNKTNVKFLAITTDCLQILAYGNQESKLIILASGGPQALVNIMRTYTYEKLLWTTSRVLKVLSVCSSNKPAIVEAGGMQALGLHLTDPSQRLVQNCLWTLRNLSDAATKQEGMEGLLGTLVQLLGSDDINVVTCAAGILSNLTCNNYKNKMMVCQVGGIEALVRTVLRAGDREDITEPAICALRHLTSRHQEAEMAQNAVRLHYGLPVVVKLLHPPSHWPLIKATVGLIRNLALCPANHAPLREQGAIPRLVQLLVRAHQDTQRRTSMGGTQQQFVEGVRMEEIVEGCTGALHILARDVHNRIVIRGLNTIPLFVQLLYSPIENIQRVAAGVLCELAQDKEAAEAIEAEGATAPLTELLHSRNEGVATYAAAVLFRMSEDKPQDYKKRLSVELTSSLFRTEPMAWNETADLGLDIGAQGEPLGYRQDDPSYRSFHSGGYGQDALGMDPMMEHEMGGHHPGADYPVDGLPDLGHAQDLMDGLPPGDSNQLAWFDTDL

[2] = CHI Log D procedure; assay type: physicochemical; settings: for CHI Log D: pH 7.4; for chromatographic logD: pH 7.4, CHI Log D
[3] = biological target: T2, full-length B-Catenin (Uniprot ID P35222) (Homo sapiens, UniProt P35222); experiment: Alphascreen binding assay (beta-catenin / biotin-TCF4 10-53)
T2 construct: 65 nM full-length B-Catenin (Uniprot ID P35222)
T2 sequence (P35222 1-781): T1 sequence (P35222 1-781)
Summary of the method: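 AlphaScreen (Ni-chelate beads) competition in 50 mM Tris pH 8.0, 250 mM NaCl with detergents and 0.1% BSA. Peptide titrated 10 uM–5 nM against 65 nM human β-catenin bound to 10 nM biotinylated TCF4 10-53, 15 min then 60 min with beads, both at 20 °C; 1:1 Hill-slope fit.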

[4] = Table E2-1, read-out: beta-Catenin FP IC50
[5] = fluorescence polarization, beta-catenin, read-out: FP EC50

## CC[C@H](C)[C@H](NC(=O)[C@H](CC(=O)O)NC(=O)[C@H](C)NC(C)=O)C(=O)N[C@]1(C)CCN(C)C(=O)OCC=CCCCCC[C@@](C)(C(=O)N[C@@H](Cc2ccccc2)C(=O)N[C@@H](Cc2c[nH]c3ccccc23)C(=O)N[C@@H](Cc2c[nH]cn2)C(N)=O)NC(=O)[C@H](CCC(N)=O)NC(=O)[C@H](Cc2ccccc2)NC(=O)[C@H](C)NC(=O)[C@H](C)NC(=O)[C@H](CC(=O)O)NC(=O)[C@H](CC(=O)O)NC1=O [I-64, Ac-Ala-Asp-Ile-RdN-Asp-Asp-Ala-Ala-Phe-Gln-S7-Phe-Trp-His-NH2]
[1]; [4]
  pIC50: 5.37
[1]; [5]
  pIC50: 5.37
[2]
  CHI Log D: 1.222
[3]
  pEC50: 6.19

## CC[C@H](C)[C@H](NC(=O)[C@H](CC(=O)O)NC(=O)[C@H](C)NC(C)=O)C(=O)N[C@]1(C)CCN(C)C(=O)OCC=CCCCCC[C@@](C)(C(=O)N[C@@H](Cc2ccccc2)C(=O)N[C@@H](Cc2c[nH]c3ccccc23)C(=O)N[C@@H](Cc2c[nH]cn2)C(N)=O)NC(=O)[C@H](CCC(N)=O)NC(=O)[C@H](Cc2ccccc2)NC(=O)[C@H](C)NC(=O)[C@H](C)NC(=O)[C@H](CCC(=O)O)NC(=O)[C@H](CC(=O)O)NC1=O [I-66, Ac-Ala-Asp-Ile-RdN-Asp-Glu-Ala-Ala-Phe-Gln-S7-Phe-Trp-His-NH2]
[1]; [4]
  pIC50: 5.96
[1]; [5]
  pIC50: 5.96
[2]
  CHI Log D: 1.259
[3]
  pEC50: 6.76

## CC(=O)N1CCC[C@]12CC=CCCCC1(CCCC=CCCCCCC[C@@](C)(C(=O)N[C@@H](Cc3ccccc3)C(=O)N[C@@H](Cc3c[nH]c4ccccc34)C(=O)N[C@@H](CCC(N)=O)C(N)=O)NC(=O)[C@H](C(C)C)NC(=O)[C@H](Cc3ccccc3)NC(=O)[C@H](C)NC(=O)[C@H](C)NC(=O)[C@H](CCC(N)=O)NC(=O)[C@H](CC(=O)O)NC1=O)NC(=O)[C@H](C)NC(=O)[C@H](CC(=O)O)NC2=O (stereo partly drawn) [I-127, Ac-PL3-Asp-Ala-B5-Asp-Gln-Ala-Ala-Phe-Val-S8-Phe-Trp-Gln-NH2]
[1]; [4]
  pIC50: 5.32
[1]; [5]
  pIC50: 5.32
[2]
  CHI Log D: 2.245
[3]
  pEC50: 6.26

## CC(=O)N1CCC[C@]12CC=CCCCC1(CCCC=CCCCCCC[C@@](C)(C(=O)N[C@@H](Cc3ccccc3)C(=O)N[C@@H](Cc3csc4ccccc34)C(=O)N[C@@H](C)C(N)=O)NC(=O)[C@H](CCC(N)=O)NC(=O)[C@H](Cc3ccccc3)NC(=O)[C@H](C)NC(=O)[C@H](C)NC(=O)[C@H](Cc3ccc4ccccc4c3)NC(=O)[C@H](CC(=O)O)NC1=O)NC(=O)[C@H](C)NC(=O)[C@H](CC(=O)O)NC2=O (stereo partly drawn) [I-296, Ac-PL3-Asp-Ala-B5-Asp-2NapA-Ala-Ala-Phe-Gln-S8-Phe-BztA-Ala-NH2]
[2]
  chromatographic logD: 2.94
[3]
  pEC50: 5.72

## CC(=O)N1CCC[C@]12CC=CCCCC1(CCCC=CCCCCCC[C@@](C)(C(=O)N[C@@H](Cc3ccccc3)C(=O)N[C@@H](Cc3csc4ccccc34)C(=O)N[C@@H](CCC(N)=O)C(N)=O)NC(=O)[C@H](C(C)C)NC(=O)[C@H](Cc3ccccc3)NC(=O)[C@H](C)NC(=O)[C@H](C)NC(=O)[C@H](Cc3ccc4ccccc4c3)NC(=O)[C@H](CC(=O)O)NC1=O)NC(=O)[C@H](C)NC(=O)[C@H](CC(=O)O)NC2=O (stereo partly drawn) [I-297, Ac-PL3-Asp-Ala-B5-Asp-2NapA-Ala-Ala-Phe-Val-S8-Phe-BztA-Gln-NH2]
[2]
  chromatographic logD: 3.29
[3]
  pEC50: 5.24

## CC(=O)N1CCC[C@]12CC=CCCCC1(CCCC=CCCCCCC[C@@](C)(C(=O)N[C@@H](Cc3ccccc3)C(=O)N[C@@H](Cc3csc4ccccc34)C(=O)N[C@@H](CCC(N)=O)C(N)=O)NC(=O)[C@H](CO)NC(=O)[C@H](Cc3ccccc3)NC(=O)[C@H](C)NC(=O)[C@H](C)NC(=O)[C@H](Cc3ccc4ccccc4c3)NC(=O)[C@H](CC(=O)O)NC1=O)NC(=O)[C@H](C)NC(=O)[C@H](CC(=O)O)NC2=O (stereo partly drawn) [I-298, Ac-PL3-Asp-Ala-B5-Asp-2NapA-Ala-Ala-Phe-Ser-S8-Phe-BztA-Gln-NH2]
[2]
  chromatographic logD: 2.78
[3]
  pEC50: 5.41

## CC(=O)N1CCC[C@]12CC=CCCCC1(CCCC=CCCCCCC[C@@](C)(C(=O)N[C@@H](Cc3cccc(Cl)c3)C(=O)N[C@@H](Cc3c[nH]c4ccccc34)C(=O)N[C@@H](CCC(N)=O)C(N)=O)NC(=O)[C@H](C(C)C)NC(=O)[C@H](Cc3ccccc3)NC(=O)[C@H](C)NC(=O)[C@H](C)NC(=O)[C@H](CC(=O)O)NC(=O)[C@H](CC(=O)O)NC1=O)NC(=O)[C@H](C)NC(=O)[C@H](CC(=O)O)NC2=O (stereo partly drawn) [I-310, Ac-PL3-Asp-Ala-B5-Asp-Asp-Ala-Ala-Phe-Val-S8-3C1F-Trp-Gln-NH2]
[2]
  CHI Log D: 2.188
[3]
  pEC50: 5.49

## CC(=O)N1CCC[C@]12CC=CCCCC1(CCCC=CCCCCCC[C@@](C)(C(=O)N[C@@H](Cc3cccc(Cl)c3)C(=O)N[C@@H](Cc3c[nH]c4ccccc34)C(=O)N[C@@H](CCC(N)=O)C(N)=O)NC(=O)[C@H](C(C)C)NC(=O)[C@H](Cc3ccccc3)NC(=O)[C@H](C)NC(=O)[C@H](C)NC(=O)[C@H](CC(=O)O)NC(=O)[C@H](CC(=O)O)NC1=O)NC(=O)[C@H](C)NC(=O)[C@H](CC(=O)O)NC2=O (stereo partly drawn) [I-311, Ac-PL3-Asp-Ala-B5-Asp-Asp-Ala-Ala-Phe-Val-S8-3C1F-Trp-Gln-NH2]
[2]
  CHI Log D: 2.226
[3]
  pEC50: 5.91

## CC(=O)N1CCC[C@]12CC=CCCCC1(CCCC=CCCCCCC[C@@](C)(C(=O)N[C@@H](Cc3ccc(Cl)cc3)C(=O)N[C@@H](Cc3c[nH]c4ccccc34)C(=O)N[C@@H](CCC(N)=O)C(N)=O)NC(=O)[C@H](C(C)C)NC(=O)[C@H](Cc3ccccc3)NC(=O)[C@H](C)NC(=O)[C@H](C)NC(=O)[C@H](CC(=O)O)NC(=O)[C@H](CC(=O)O)NC1=O)NC(=O)[C@H](C)NC(=O)[C@H](CC(=O)O)NC2=O (stereo partly drawn) [I-313, Ac-PL3-Asp-Ala-B5-Asp-Asp-Ala-Ala-Phe-Val-S8-4C1F-Trp-Gln-NH2]
[2]
  CHI Log D: 2.159
[3]
  pEC50: 5.44

## CC(=O)N1CCC[C@]12CC=CCCCC1(CCCC=CCCCCCC[C@@](C)(C(=O)N[C@@H](Cc3ccccc3)C(=O)N[C@@H](Cc3c[nH]c4ccccc34)C(=O)N[C@@H](CCC(N)=O)C(N)=O)NC(=O)[C@H](C(C)C)NC(=O)[C@H](Cc3ccccc3)NC(=O)[C@H](C)NC(=O)[C@H](C)NC(=O)[C@H](CCC(=O)O)NC(=O)[C@H](CC(=O)O)NC1=O)NC(=O)[C@H](C)NC(=O)[C@H](Cc1c[nH]cn1)NC2=O (stereo partly drawn) [I-315, Ac-PL3-His-Ala-B5-Asp-Glu-Ala-Ala-Phe-Val-S8-Phe-Trp-Gln-NH2]
[2]
  CHI Log D: 2.359
[3]
  pEC50: 5.00

## CC(=O)N1CCC[C@]12CC=CCCCC1(CCCC=CCCCCCC[C@@](C)(C(=O)N[C@@H](Cc3ccccc3)C(=O)N[C@@H](Cc3c[nH]c4ccccc34)C(=O)N[C@@H](CCC(N)=O)C(N)=O)NC(=O)[C@H](C(C)C)NC(=O)[C@H](Cc3c[nH]cn3)NC(=O)[C@H](C)NC(=O)[C@H](C)NC(=O)[C@H](CC(=O)O)NC(=O)[C@H](CC(=O)O)NC1=O)NC(=O)[C@H](C)NC(=O)[C@H](CC(=O)O)NC2=O (stereo partly drawn) [I-321, Ac-PL3-Asp-Ala-B5-Asp-Asp-Ala-Ala-His-Val-S8-Phe-Trp-Gln-NH2]
[2]
  CHI Log D: 2.073
[3]
  pEC50: 5.65

## CC(=O)N1CCC[C@]12CC=CCCCC1(CCCC=CCCCCCC[C@@](C)(C(=O)N[C@@H](Cc3ccccc3)C(=O)N[C@@H](Cc3c[nH]c4ccccc34)C(=O)N[C@@H](CCC(N)=O)C(N)=O)NC(=O)[C@H](C(C)C)NC(=O)[C@H](Cc3ccc(N)cc3)NC(=O)[C@H](C)NC(=O)[C@H](C)NC(=O)[C@H](CC(=O)O)NC(=O)[C@H](CC(=O)O)NC1=O)NC(=O)[C@H](C)NC(=O)[C@H](CC(=O)O)NC2=O (stereo partly drawn) [I-322, Ac-PL3-Asp-Ala-B5-Asp-Asp-Ala-Ala-4AmPhe-Val-S8-Phe-Trp-Gln-NH2]
[2]
  CHI Log D: 1.933
[3]
  pEC50: 6.45

## CC(=O)N1CCC[C@]12CC=CCCCC1(CCCC=CCCCCCC[C@@](C)(C(=O)N[C@@H](Cc3ccccc3)C(=O)N[C@@H](Cc3c[nH]c4ccccc34)C(=O)N[C@@H](CCC(N)=O)C(N)=O)NC(=O)[C@H](C(C)C)NC(=O)[C@H](Cc3ccccc3)NC(=O)[C@H](C)NC(=O)[C@H](C)NC(=O)[C@H](Cc3ccc(N)cc3)NC(=O)[C@H](CC(=O)O)NC1=O)NC(=O)[C@H](C)NC(=O)[C@H](CC(=O)O)NC2=O (stereo partly drawn) [I-324, Ac-PL3-Asp-Ala-B5-Asp-4AmPhe-Ala-Ala-Phe-Val-S8-Phe-Trp-Gln-NH2]
[2]
  chromatographic logD: 2.6
[3]
  pEC50: 5.76
